Drawing on patent US8476298B2 (Exelixis, Inc., priority 2003, dated 2013), this text covers IC50 for 17 compounds.

Read-outs that look alike come from different tables or passages of the source.

The target of one assay is c-Kit kinase (Homo sapiens, UniProt P10721). As to the kind of experiment: c-Kit AlphaScreen kinase assay.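 Also: c-Kit kinase phosphorylating biotinylated poly(Glu,Tyr), ATP near its KM, 1 h reaction at ambient temperature, AlphaScreen chemiluminescence with streptavidin donor and anti-phosphotyrosine acceptor beads, 10-point inhibitor titration.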 In kind it is biochemical. On the technique in general: Bead proximity is the source of the signal in Alpha formats.
Chain of c-Kit kinase (P10721 26-976): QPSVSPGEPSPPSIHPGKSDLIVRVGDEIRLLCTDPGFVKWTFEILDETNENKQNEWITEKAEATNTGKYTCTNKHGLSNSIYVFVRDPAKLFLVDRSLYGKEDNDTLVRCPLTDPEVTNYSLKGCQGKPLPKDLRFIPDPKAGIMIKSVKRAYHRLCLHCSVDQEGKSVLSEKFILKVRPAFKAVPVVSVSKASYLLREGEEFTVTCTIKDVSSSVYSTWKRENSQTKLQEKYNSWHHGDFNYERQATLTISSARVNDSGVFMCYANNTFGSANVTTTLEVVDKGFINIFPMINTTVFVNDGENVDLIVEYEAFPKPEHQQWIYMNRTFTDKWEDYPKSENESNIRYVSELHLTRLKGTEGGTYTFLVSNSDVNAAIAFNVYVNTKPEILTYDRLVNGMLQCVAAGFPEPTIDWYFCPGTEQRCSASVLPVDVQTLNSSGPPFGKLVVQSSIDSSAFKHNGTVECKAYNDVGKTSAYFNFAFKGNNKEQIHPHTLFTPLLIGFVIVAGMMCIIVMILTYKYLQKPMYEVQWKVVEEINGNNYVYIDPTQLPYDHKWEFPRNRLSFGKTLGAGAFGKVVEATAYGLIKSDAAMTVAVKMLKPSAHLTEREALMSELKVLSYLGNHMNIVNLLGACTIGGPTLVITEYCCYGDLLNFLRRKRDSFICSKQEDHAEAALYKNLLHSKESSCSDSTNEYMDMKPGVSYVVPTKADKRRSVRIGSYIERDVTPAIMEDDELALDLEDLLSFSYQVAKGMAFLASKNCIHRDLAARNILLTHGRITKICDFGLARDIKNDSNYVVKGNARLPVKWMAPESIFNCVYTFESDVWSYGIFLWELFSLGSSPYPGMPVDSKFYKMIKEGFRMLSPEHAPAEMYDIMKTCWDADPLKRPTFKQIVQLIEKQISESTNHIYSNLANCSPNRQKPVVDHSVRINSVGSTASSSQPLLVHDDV
Assay [1] deals with T1, c-Met (baculovirus expressed human c-Met kinase domain P948-S1343) (Homo sapiens, UniProt P08581).
T1 construct: human c-Met kinase domain P948-S1343; host or cells: baculovirus expression
T1 sequence (P08581 1011-1343 limits assumed): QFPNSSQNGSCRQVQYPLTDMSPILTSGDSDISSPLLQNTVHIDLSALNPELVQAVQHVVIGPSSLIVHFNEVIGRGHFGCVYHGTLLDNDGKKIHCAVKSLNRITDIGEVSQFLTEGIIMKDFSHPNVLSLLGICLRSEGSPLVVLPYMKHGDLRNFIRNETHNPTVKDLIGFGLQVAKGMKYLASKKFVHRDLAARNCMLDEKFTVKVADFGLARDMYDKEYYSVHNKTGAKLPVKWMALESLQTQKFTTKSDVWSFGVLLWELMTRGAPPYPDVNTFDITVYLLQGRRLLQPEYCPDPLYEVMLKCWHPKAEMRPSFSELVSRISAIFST
As to the kind of experiment: c-Met Luciferase-Coupled Chemiluminescent Kinase assay (LCCA).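 Also: kinase activity read as percent ATP left after reaction, by luciferase-luciferin chemiluminescence, with 1 µM ATP and 1 µM poly-EY substrate, 2 h at ambient temperature, 10-point dose-response.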 The format is biochemical.

The target in assay [2] is T2, KDR (baculovirus expressed human KDR kinase domain D807-V1356) (Homo sapiens, UniProt P35968).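 Also: Luciferase-coupled chemiluminescent kinase assay, activity read as percent ATP left after 4 h reaction at ambient temperature, ATP near KM, 10-point dose-response in 384-well plates.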
T2 construct: human KDR kinase domain D807-V1356; host or cells: baculovirus expression
T2 sequence (P35968 807-1356): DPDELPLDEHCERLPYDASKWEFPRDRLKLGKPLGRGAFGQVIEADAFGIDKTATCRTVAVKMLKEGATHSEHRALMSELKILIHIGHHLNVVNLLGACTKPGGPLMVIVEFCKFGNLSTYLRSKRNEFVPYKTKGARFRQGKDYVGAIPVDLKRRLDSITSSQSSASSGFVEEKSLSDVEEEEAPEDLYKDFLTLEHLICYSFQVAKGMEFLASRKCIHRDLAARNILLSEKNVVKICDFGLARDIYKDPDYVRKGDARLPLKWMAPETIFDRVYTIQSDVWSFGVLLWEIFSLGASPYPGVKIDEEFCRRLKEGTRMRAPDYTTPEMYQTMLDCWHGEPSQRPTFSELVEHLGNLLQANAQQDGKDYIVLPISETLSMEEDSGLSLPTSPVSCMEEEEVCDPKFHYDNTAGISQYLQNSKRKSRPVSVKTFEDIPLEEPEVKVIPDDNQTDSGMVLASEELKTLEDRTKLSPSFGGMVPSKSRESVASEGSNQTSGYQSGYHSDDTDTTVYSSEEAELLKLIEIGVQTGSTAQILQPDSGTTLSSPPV
As to the kind of experiment: biochemical.
Description: Kinase activity and compound inhibition are investigated using one or more of the three assay formats described below. The ATP concentrations for each assay are selected to be close to the Michaelis-Menten constant (KM) for each individual kinase. Dose-response experiments are performed at 10 different inhibitor concentrations in a 384-well plate format.
KDR biochemical activity was assessed using a Luciferase-Coupled Chemiluminescent Kinase assay (LCCA) format. Kinase activity was measured as the percent ATP remaining following the kinase reaction. Remaining ATP was detected by luciferase-luciferin-coupled chemiluminescence. […] The mixture is incubated at ambient temperature for 4 hours after which 20 uL luciferase-luciferin mix is added and the chemiluminescent signal read using a Wallac Victor^2 reader.

Assay [3] addresses T3, Flt-4 (baculovirus expressed human Flt-4 kinase domain D725-R1298) (Homo sapiens, UniProt P35916).
T3 construct: human Flt-4 kinase domain D725-R1298; host or cells: baculovirus expression
As to the kind of experiment: flt-4 Alphascreen Tyrosine Kinase assay.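 Also: AlphaScreen chemiluminescence read-out of biotinylated poly(Glu,Tyr) 4:1 phosphorylation via streptavidin donor and PY100 anti-phosphotyrosine acceptor beads, ATP near KM, 1 hr kinase reaction, 10-point dose-response.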 Particulars: read-out: flt4 IC50. In kind it is biochemical.
Description: Kinase activity and compound inhibition are investigated using one or more of the three assay formats described below. The ATP concentrations for each assay are selected to be close to the Michaelis-Menten constant (KM) for each individual kinase. Dose-response experiments are performed at 10 different inhibitor concentrations in a 384-well plate format. […] Typically H is close to unity. c-Met Assay
Biochemical activity for flt-4 was assessed using an Alphascreen Tyrosine Kinase protocol. AlphaScreen™ (Perkin Elmer) technology is a proximity assay employing microparticles. Singlet oxygen derived from a donor bead following laser excitation results in chemiluminescence when in proximity (100 Å) to an acceptor bead due to biomolecular interactions. For the Flt-4 assay, donor beads coated with streptavidin and acceptor beads coated with PY100 anti-phosphotyrosine antibody were used (Perkin Elmer). Biotinylated poly(Glu,Tyr) 4:1 (Perkin Elmer) was used as the substrate. Substrate phosphorylation was measured by addition of donor/acceptor beads by chemiluminescence following donor-acceptor bead complex formation. […] Reaction mixtures were incubated for 1 hr at ambient temperature. […] After 2-16 hr incubation at ambient temperature plates were read using an AlphaQuest reader (Perkin Elmer).

The target of assay [4] is T4, Flt-3 (baculovirus expressed human Flt-3 kinase domain R571-S993) (Homo sapiens, UniProt P36888).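 Also: Luciferase-coupled chemiluminescent kinase assay, activity read as percent ATP left after a 3 h reaction at room temperature, ATP near KM, 10-point dose-response.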
T4 construct: human Flt-3 kinase domain R571-S993; host or cells: baculovirus expression
T4 sequence (P36888 571-993): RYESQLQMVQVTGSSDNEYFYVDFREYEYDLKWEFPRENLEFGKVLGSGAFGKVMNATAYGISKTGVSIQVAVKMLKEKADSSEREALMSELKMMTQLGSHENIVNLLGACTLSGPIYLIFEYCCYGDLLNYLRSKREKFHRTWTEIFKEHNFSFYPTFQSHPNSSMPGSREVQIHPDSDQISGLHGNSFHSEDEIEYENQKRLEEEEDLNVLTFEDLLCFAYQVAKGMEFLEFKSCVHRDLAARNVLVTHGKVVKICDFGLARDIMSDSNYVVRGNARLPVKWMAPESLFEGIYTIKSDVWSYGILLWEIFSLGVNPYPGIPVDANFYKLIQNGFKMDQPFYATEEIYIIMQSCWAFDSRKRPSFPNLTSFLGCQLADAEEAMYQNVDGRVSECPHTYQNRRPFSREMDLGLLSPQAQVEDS
As to the kind of experiment: biochemical. Particulars: read-out: flt3 IC50.

Setting [5] is: Table 4, inhibition as IC50 class.

T3 sequence (P35916 725-1298 isoform P35916-1): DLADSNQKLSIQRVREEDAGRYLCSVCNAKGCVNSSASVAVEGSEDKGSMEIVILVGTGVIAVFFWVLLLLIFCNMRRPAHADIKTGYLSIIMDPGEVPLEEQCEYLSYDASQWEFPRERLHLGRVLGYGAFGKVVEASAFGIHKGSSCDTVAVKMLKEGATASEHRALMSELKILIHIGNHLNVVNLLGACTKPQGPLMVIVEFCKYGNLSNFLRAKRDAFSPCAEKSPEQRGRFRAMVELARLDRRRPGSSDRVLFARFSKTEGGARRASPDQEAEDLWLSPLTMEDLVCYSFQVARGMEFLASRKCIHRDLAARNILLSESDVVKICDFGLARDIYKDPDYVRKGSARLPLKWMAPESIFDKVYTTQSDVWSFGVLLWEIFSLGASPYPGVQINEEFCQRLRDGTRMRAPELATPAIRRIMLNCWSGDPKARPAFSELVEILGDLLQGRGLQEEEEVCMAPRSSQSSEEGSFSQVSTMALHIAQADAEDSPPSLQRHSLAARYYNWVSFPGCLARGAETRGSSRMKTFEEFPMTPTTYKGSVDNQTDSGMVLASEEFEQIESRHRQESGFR

For `COc1cc2ncnc(Oc3ccc(NC(=O)C4(C(=O)Nc5ccc(F)cc5)CC4)cc3F)c2cc1OC` [Example 311, N-(4-{[6,7-bis(methyloxy)quinazolin-4-yl]oxy}-3-fluorophenyl)-N′-(4-fluorophenyl)cyclopropane-1,1-dicarboxamide], the IC50 (commonly the point on the concentration scale where inhibition reaches its midpoint) was 50 to 500 nM at c-Kit kinase; less than 50 nM in assay [1]; less than 50 nM in assay [2]; less than 50 nM in assay [3]; less than 50 nM in assay [4].

With `COc1cc2c(Oc3ccc(NC(=O)C(=O)N4CCC(Cc5ccccc5)CC4)cc3F)ccnc2cc1OCC1CCNCC1` [Example 287, N-[3-fluoro-4-({6-(methyloxy)-7-[(piperidin-4-ylmethyl)oxy]quinolin-4-yl}oxy)phenyl]-2-oxo-2-[4-(phenylmethyl)piperidin-1-yl]acetamide], the half-maximal inhibitory concentration (IC50) against c-Kit kinase is 50 to 500 nM; in assay [1], less than 50 nM; in assay [2], less than 50 nM; in assay [3], 50 to 500 nM; in assay [4], less than 50 nM.

Take `COc1cc2c(Oc3ccc(NC(=O)C(=O)NCCc4ccccc4)cc3F)ccnc2cc1OCC1CN(C)C1` [Example 250, N-(3-fluoro-4-{[7-{[(1-methylazetidin-3-yl)methyl]oxy}-6-(methyloxy)quinolin-4-yl]oxy}phenyl)-N′-(2-phenylethyl)ethanediamide]: the IC50 (against c-Kit kinase (setting [5]); in assay [1] (setting [5]); in assay [2] (setting [5]); in assay [3] (setting [5]); in assay [4] (setting [5])) was less than 50 nM each time.

`COc1cc2c(Oc3ccc(NC(=O)C(=O)NCCc4ccc(Br)cc4)cc3F)ccnc2cc1OCC1CCNCC1` [Example 230, N-[2-(4-bromophenyl)ethyl]-N′-[3-fluoro-4-({6-(methyloxy)-7-[(piperidin-4-ylmethyl)oxy]quinolin-4-yl}oxy)phenyl]ethanediamide]: the 50% inhibitory concentration (IC50) at c-Kit kinase (setting [5]) was 50 to 500 nM; in assay [1] (setting [5]), less than 50 nM; in assay [2] (setting [5]) it was less than 50 nM; in assay [3] (setting [5]), 50 to 500 nM; in assay [4] (setting [5]), 50 to 500 nM.

`COc1cc2c(Oc3ccc(NC(=O)C(=O)NCc4ccc(OC(F)(F)F)cc4)cc3F)ccnc2cc1OCC1CCNCC1` [Example 246, N-[3-fluoro-4-({6-(methyloxy)-7-[(piperidin-4-ylmethyl)oxy]quinolin-4-yl}oxy)phenyl]-N′-({4-[(trifluoromethyl)oxy]phenyl}methyl)ethanediamide]: the half-maximal inhibitory concentration (IC50) is 50 to 500 nM against c-Kit kinase (setting [5]); less than 50 nM in assay [1] (setting [5]); 50 to 500 nM in assay [2] (setting [5]); 50 to 500 nM in assay [3] (setting [5]); 50 to 500 nM in assay [4] (setting [5]).

As to `COc1cc2c(Oc3ccc(NC(=O)C4(C(=O)Nc5ccc(F)cc5)CC4)cc3F)ccnc2cc1OCCCN1CCCCC1` [Example 313, N-[3-fluoro-4-({6-(methyloxy)-7-[(3-piperidin-1-ylpropyl)oxy]quinolin-4-yl}oxy)phenyl]-N′-(4-fluorophenyl)cyclopropane-1,1-dicarboxamide], the IC50 (on c-Kit kinase; in assay [1]; in assay [2]; in assay [3]; in assay [4]) was less than 50 nM each time.

For the compound `COc1cc2c(Oc3ccc(NC(=O)C(=O)NCCC(C)(C)C)cc3F)ccnc2cc1OCC1CCNCC1` [Example 264, N-(3,3-dimethylbutyl)-N′-[3-fluoro-4-({6-(methyloxy)-7-[(piperidin-4-ylmethyl)oxy]quinolin-4-yl}oxy)phenyl]ethanediamide], the IC50 against c-Kit kinase (setting [5]) is less than 50 nM; in assay [1] (setting [5]), less than 50 nM; in assay [2] (setting [5]), less than 50 nM; in assay [3] (setting [5]) it was 50 to 500 nM; in assay [4] (setting [5]), less than 50 nM.

Regarding `COc1cc2c(Oc3ccc(NC(=O)C(=O)NCc4ccccc4OC(F)(F)F)cc3F)ccnc2cc1OCC1CCNCC1` [Example 244, N-[3-fluoro-4-({6-(methyloxy)-7-[(piperidin-4-ylmethyl)oxy]quinolin-4-yl}oxy)phenyl]-N′-({2-[(trifluoromethyl)oxy]phenyl}methyl)ethanediamide], the IC50 (at c-Kit kinase (setting [5]); in assay [1] (setting [5]); in assay [2] (setting [5]); in assay [3] (setting [5]); in assay [4] (setting [5])) was less than 50 nM throughout.

On to `COc1cc2c(Oc3ncc(NC(=O)C4(C(=O)Nc5ccc(F)cc5)CC4)cc3Cl)ccnc2cc1OCC1CCNCC1` [Example 282, N-[5-chloro-6-({6-(methyloxy)-7-[(piperidin-4-ylmethyl)oxy]quinolin-4-yl}oxy)pyridin-3-yl]-N′-(4-fluorophenyl)cyclopropane-1,1-dicarboxamide], for which the half-maximal inhibitory concentration (IC50) (against c-Kit kinase; in assay [1]; in assay [2]; in assay [3]; in assay [4]) was less than 50 nM each time.

Consider `COc1cc2c(Oc3ccc(NC(=O)C(=O)NCc4c(F)cccc4F)cc3F)ccnc2cc1OCC1CCNCC1` [Example 257, N-[(2,6-difluorophenyl)methyl]-N′-[3-fluoro-4-({6-(methyloxy)-7-[(piperidin-4-ylmethyl)oxy]quinolin-4-yl}oxy)phenyl]ethanediamide], for which the 50% inhibitory concentration (IC50) on c-Kit kinase (setting [5]) was less than 50 nM; in assay [1] (setting [5]), less than 50 nM; in assay [2] (setting [5]), less than 50 nM; in assay [3] (setting [5]), less than 50 nM; in assay [4] (setting [5]) it was 50 to 500 nM.

Consider `COc1cc2c(Oc3ccc(NC(=O)C(=O)NCc4cccc(OC(F)(F)F)c4)cc3F)ccnc2cc1OCC1CCNCC1` [Example 240, N-[3-fluoro-4-({6-(methyloxy)-7-[(piperidin-4-ylmethyl)oxy]quinolin-4-yl}oxy)phenyl]-N′-({3-[(trifluoromethyl)oxy]phenyl}methyl)ethanediamide], for which the IC50 (on c-Kit kinase (setting [5]); in assay [1] (setting [5]); in assay [2] (setting [5]); in assay [3] (setting [5]); in assay [4] (setting [5])) was less than 50 nM in each case.

As for `CC[C@@H](NC(=O)C(=O)Nc1ccc(Oc2ccnc3cc(OCC4CCNCC4)c(OC)cc23)c(F)c1)c1ccccc1` [Example 254, N-[3-fluoro-4-({6-(methyloxy)-7-[(piperidin-4-ylmethyl)oxy]quinolin-4-yl}oxy)phenyl]-N′-[(1R)-1-phenylpropyl]ethanediamide], the half-maximal inhibitory concentration (IC50) was 50 to 500 nM at c-Kit kinase (setting [5]); less than 50 nM in assay [1] (setting [5]); 50 to 500 nM in assay [2] (setting [5]); 50 to 500 nM in assay [3] (setting [5]); 50 to 500 nM in assay [4] (setting [5]).

On to `COc1ccc(CCNC(=O)C(=O)Nc2ccc(Oc3ccnc4cc(OCC5CCNCC5)c(OC)cc34)c(F)c2)cc1` [Example 228, N-[3-fluoro-4-({6-(methyloxy)-7-[(piperidin-4-ylmethyl)oxy]quinolin-4-yl}oxy)phenyl]-N′-{2-[4-(methyloxy)phenyl]ethyl}ethanediamide], for which the IC50 on c-Kit kinase (setting [5]) is 50 to 500 nM; in assay [1] (setting [5]), less than 50 nM; in assay [2] (setting [5]), 50 to 500 nM; in assay [3] (setting [5]), 50 to 500 nM; in assay [4] (setting [5]), 50 to 500 nM.

For `COc1ccc(NC(=O)C(=O)Nc2ccc(Oc3ccnc4cc(OCC5CCNCC5)c(OC)cc34)c(F)c2)cc1OC` [Example 262, N-[3,4-bis(methyloxy)phenyl]-N′-[3-fluoro-4-({6-(methyloxy)-7-[(piperidin-4-ylmethyl)oxy]quinolin-4-yl}oxy)phenyl]ethanediamide], the concentration for half-maximal inhibition (IC50) against c-Kit kinase (setting [5]) was 500 to 5000 nM; in assay [1] (setting [5]) it was less than 50 nM; in assay [2] (setting [5]) it was 500 to 5000 nM; in assay [3] (setting [5]) it was 50 to 500 nM; in assay [4] (setting [5]) it was 50 to 500 nM.

Regarding `COc1cc2c(Oc3ccc(NC(=O)C(=O)NCc4cccc(F)c4F)cc3F)ccnc2cc1OCC1CCNCC1` [Example 225, N-[(2,3-difluorophenyl)methyl]-N′-[3-fluoro-4-({6-(methyloxy)-7-[(piperidin-4-ylmethyl)oxy]quinolin-4-yl}oxy)phenyl]ethanediamide], the IC50 was 50 to 500 nM against c-Kit kinase (setting [5]); less than 50 nM in assay [1] (setting [5]); less than 50 nM in assay [2] (setting [5]); less than 50 nM in assay [3] (setting [5]); 50 to 500 nM in assay [4] (setting [5]).

For `COc1cc2c(Oc3ccc(NC(=O)C4(C(=O)Nc5ccc(F)cc5)CCC4)cc3F)ccnc2cc1OCCCN1CCCCC1` [Example 314, N-[3-fluoro-4-({6-(methyloxy)-7-[(3-piperidin-1-ylpropyl)oxy]quinolin-4-yl}oxy)phenyl]-N′-(4-fluorophenyl)cyclobutane-1,1-dicarboxamide], the IC50 at c-Kit kinase was less than 50 nM; in assay [1] it was less than 50 nM; in assay [2] it was less than 50 nM; in assay [3], less than 50 nM; in assay [4], 50 to 500 nM.

`COc1cc2c(Oc3ccc(NC(=O)C(=O)NCCc4ccccc4)cc3F)ncnc2cc1OCC1C[C@H]2CNC[C@H]2C1` (stereo partly drawn) [Example 285, N-{3-fluoro-4-[(6-(methyloxy)-7-{[(3aR,6aS)-octahydrocyclopenta[c]pyrrol-5-ylmethyl]oxy}quinazolin-4-yl)oxy]phenyl}-N′-(2-phenylethyl)ethanediamide]: the IC50 (against c-Kit kinase; in assay [1]; in assay [2]; in assay [3]; in assay [4]) was less than 50 nM throughout.
